The text below walks through data of patent US20230279018A1, “AP[…] INHIBITION” (priority 2020, published 2023).

Like-named read-outs stand apart in the source and are kept apart here.

What all share (assay type): biochemical
One assay has as its target T1, Pf-Mut (L550V) cFRS (Plasmodium falciparum, UniProt Q8I246, L550V).
T1 sequence (Q8I246 1-575 L550V): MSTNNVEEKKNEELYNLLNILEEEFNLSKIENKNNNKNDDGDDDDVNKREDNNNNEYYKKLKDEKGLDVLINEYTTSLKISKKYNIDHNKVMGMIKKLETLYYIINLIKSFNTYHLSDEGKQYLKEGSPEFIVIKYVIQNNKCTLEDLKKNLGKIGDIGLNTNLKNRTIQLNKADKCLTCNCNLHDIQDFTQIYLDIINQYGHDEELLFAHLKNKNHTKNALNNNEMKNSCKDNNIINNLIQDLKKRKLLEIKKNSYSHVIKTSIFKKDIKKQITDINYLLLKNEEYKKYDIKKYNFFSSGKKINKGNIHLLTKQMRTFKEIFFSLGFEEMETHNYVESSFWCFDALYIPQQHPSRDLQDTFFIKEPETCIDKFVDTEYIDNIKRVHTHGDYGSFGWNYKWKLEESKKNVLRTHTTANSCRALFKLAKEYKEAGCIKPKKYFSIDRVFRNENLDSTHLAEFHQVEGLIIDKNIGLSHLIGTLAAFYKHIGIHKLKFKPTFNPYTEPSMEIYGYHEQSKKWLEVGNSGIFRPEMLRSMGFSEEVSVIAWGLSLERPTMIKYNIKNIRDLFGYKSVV
T1 sequence (Q8IIW2 1-623 partner): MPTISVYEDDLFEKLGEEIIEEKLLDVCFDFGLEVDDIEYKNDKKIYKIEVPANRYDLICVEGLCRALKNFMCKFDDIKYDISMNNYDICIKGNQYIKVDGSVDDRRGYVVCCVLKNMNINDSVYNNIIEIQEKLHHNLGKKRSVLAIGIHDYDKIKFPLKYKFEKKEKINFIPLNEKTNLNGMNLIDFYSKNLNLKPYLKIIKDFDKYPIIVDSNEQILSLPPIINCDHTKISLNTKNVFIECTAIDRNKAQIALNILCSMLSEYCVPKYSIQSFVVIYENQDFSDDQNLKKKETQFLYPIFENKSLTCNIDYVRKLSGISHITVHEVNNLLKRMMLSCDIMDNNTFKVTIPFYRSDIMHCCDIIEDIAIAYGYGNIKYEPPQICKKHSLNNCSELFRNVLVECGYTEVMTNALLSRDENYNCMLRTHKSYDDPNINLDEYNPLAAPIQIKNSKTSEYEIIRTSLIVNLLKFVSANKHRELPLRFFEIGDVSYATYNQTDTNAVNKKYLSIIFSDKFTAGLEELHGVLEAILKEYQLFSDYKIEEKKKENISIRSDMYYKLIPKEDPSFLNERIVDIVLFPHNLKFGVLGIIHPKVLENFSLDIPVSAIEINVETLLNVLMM
Briefly: malachite green-based aminoacylation assay, Pf-Mut (L550V) cFRS. The following applies: aminoacylation activity; read-out: cFRS IC50, Pf mutant (L550V). An excerpt: (§1) EC50 assays were run as described in Int'l Pub Nos. WO 2015070204, WO 2018175385, and Kato, N, et al. Nature 538 (2016): 344-349, which are hereby incorporated by reference in its entirety. The inhibition of the aminoacylation activity of Pf (Plasmodium falciparum), Pv (Plasmodium vivax), Hs (Human) and Pf-Mut (L550V) cFRS enzymes by Compound 1 are illustrated in FIG. 1.
(§2) The enzymatic activity of purified heterodimeric PfcFRS using malachite green-based aminoacylation assays with substrates L-Phe and ATP was also measured as described in Cestari, I. et al., J Biomol. Screen. 18 (2013): 490-497 and Kato, N, et al. Nature 538 (2016): 344-349, which are hereby incorporated by reference in its entirety. […] Enzymatic reactions (50 μl total volume) were performed in clear, flat-bottomed, 96-well plates (Costar 96-well standard microplates). The reaction mixture was incubated for 2 h at 37° C. The reaction was stopped by adding 12.5 μl of malachite green solution to the reaction mixture and levels of inorganic phosphate (Pi) were detected after incubation of 5 min at room temperature. Absorbance was the measured at 620 nm using a Spectramax M2 (Molecular Devices). Reactions without FRS enzyme were performed as background controls, values of which were subtracted from the reactions with enzyme. […]

For assay [1], the target named is T2, Pv (Plasmodium vivax) cFRS (Plasmodium vivax, UniProt A5K9S0).
T2 construct: Full-length PvcFRS was also purified according to the same protocol; His6 (encoded by vector pETM11); made in house; host or cells: E. coli strain B834
T2 sequence (A5K9S0 whole entry): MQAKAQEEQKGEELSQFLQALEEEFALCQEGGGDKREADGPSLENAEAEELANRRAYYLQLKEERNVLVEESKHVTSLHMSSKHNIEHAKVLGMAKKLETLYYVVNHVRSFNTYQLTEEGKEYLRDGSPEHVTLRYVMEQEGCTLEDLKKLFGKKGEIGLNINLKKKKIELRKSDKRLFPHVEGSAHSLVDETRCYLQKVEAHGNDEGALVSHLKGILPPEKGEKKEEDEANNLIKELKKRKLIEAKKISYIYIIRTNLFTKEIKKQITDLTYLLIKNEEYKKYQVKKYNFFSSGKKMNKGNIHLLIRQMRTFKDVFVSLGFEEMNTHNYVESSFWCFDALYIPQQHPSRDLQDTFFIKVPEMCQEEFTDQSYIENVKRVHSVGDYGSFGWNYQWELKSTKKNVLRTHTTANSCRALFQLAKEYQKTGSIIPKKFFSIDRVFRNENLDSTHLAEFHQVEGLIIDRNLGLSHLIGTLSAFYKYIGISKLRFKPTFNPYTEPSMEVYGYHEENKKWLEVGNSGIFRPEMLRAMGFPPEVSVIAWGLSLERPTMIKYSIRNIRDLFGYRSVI
T2 sequence (A5K464 whole entry, further chain): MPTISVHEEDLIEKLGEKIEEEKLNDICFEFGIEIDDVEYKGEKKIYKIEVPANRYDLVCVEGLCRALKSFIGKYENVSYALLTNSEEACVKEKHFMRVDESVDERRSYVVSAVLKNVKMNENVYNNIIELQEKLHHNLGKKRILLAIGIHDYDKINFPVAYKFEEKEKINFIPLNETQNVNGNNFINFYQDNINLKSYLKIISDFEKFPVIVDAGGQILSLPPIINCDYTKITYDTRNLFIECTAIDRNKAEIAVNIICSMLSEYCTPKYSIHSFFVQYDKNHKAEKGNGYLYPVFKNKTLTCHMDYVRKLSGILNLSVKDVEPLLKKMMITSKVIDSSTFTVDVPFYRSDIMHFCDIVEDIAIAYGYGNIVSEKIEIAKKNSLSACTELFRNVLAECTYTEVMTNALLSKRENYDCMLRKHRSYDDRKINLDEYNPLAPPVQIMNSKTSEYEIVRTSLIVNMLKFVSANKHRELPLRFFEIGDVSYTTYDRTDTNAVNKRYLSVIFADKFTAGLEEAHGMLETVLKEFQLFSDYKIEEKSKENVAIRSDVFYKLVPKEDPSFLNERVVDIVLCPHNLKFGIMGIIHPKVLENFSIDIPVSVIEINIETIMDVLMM
Kind of assay: malachite green-based aminoacylation assay, PvcFRS. The following applies: aminoacylation activity.
From the text: as §1, §2

For another assay, the target named is T3, PfcFRS (Plasmodium falciparum, UniProt Q8I246).
T3 sequence (Q8I246 1-575): T1 sequence (Q8I246 1-575 L550V)
T3 sequence (Q8IIW2 1-623 partner): T1 sequence (Q8IIW2 1-623 partner)
Kind of assay: malachite green-based aminoacylation assay, PfcFRS.
From the text: as §1
The enzymatic activity of purified heterodimeric PfcFRS using malachite green-based aminoacylation assays with substrates L-Phe and ATP was also measured as described in Cestari, I. et al., J Biomol. Screen. 18 (2013): 490-497 and Kato, N, et al. Nature 538 (2016): 344-349, which are hereby incorporated by reference in its entirety. […] Enzymatic reactions (50 μl total volume) were performed in clear, flat-bottomed, 96-well plates (Costar 96-well standard microplates). The reaction mixture was incubated for 2 h at 37° C. The reaction was stopped by adding 12.5 μl of malachite green solution to the reaction mixture and levels of inorganic phosphate (Pi) were detected after incubation of 5 min at room temperature. Absorbance was the measured at 620 nm using a Spectramax M2 (Molecular Devices). Reactions without FRS enzyme were performed as background controls, values of which were subtracted from the reactions with enzyme. Compound 1 was added to the aminoacylation assay reaction buffer in varying concentrations ranging from 0.1 nM to 10,000 nM.
Data sets were then globally fitted to the appropriate model (with equations (1) and (2) used for competitive and mixed inhibition respectively).
where v is the reaction rate, Km is the Michaelis-Menten constant, Vmax is the maximum reaction velocity, Ki is the inhibitor constant, [I] is the concentration of inhibitor (Compound 1) and [S] is the concentration of substrate.
The data is shown for three replicates as the mean±SD in FIGS. 2A and 2B. […] Specifically, enzyme activity was evaluated at a fixed saturating concentration of one substrate (L-Phe or ATP) and varying concentrations the other at different inhibitor concentrations. The experimental data were fit to the Michaelis-Menten equation that produced Lineweaver-Burk plots as described above. […] The mode of inhibition was then analyzed using ATP as the variable-concentration substrate (FIG. 2B). The data were then fit to the modified high-substrate inhibition Michaelis-Menten equation that led to the corresponding double-reciprocal plot and its inhibition profile.

In the case of `COC[C@@H]1[C@H](c2ccc(C#Cc3ccccc3)cc2)[C@@H]2CN(C(=O)Nc3ccc(OC4CC4)cc3)C[C@@H](O)[C@@H](O)CN12` [Compound 1, (3S,4R,8R,9R,10S)—N-(4-cyclopropoxyphenyl)-3,4-dihydroxy-10-(methoxymethyl)-9-(4-(phenylethynyl)phenyl)-1,6-diazabicyclo[6.2.0]decane-6-carboxamide], the IC50 on Pf-Mut (L550V) cFRS came to 1000 nM; in assay [1], 25 nM; on PfcFRS (aminoacylation activity, read-out: cFRS IC50, Pf), 12 nM. The “mode of inhibition with respect to ATP” value at PfcFRS (Lineweaver-Burk analysis) is recorded as “non-competitive inhibitor”. Besides, on PfcFRS (Lineweaver-Burk analysis), the “mode of inhibition with respect to L-Phe” value is “competitive inhibitor”. Further, the Ki worked out at 6 ± 2 nM at PfcFRS (global competitive inhibition model, saturating ATP, varying L-Phe, read-out: Ki with respect to L-Phe) and 10 ± 5 nM at PfcFRS (non-competitive inhibition model, saturating L-Phe, varying ATP, read-out: Ki with respect to ATP).
